According to publication PMC10865806, “Structural insights into the molecular mechanism of high-level ceftazidime–avibactam resistance conferred by CMY-185” (mBio, 2024):
≈ marks a conversion by molar mass, not a printed value.

What was measured:
[1] = target: T1, CMY-2 (Klebsiella pneumoniae, UniProt Q48434); experiment: Steady-state hydrolysis kinetics; type: biochemical, Escherichia coli; settings: substrate 100 µM, 100–200 nM enzyme
T1 construct: all CMY-2 variant genes encoding the mature enzyme without a signal peptide were cloned into the protein expression plasmid vector pET-30b; made in house; host or cells: E. coli BL21 (DE3), pET-30b
From the text: (§1) We tested the enzymes, CMY-2, two single mutants V211S (CMY-42) and N346Y, three double mutants A114E_N346Y, Q120K_N346Y, and V211S_N346Y, and the quadruplet mutant CMY-185 to elucidate the impact on the kinetic properties resulting from the four amino acid substitutions present in CMY-185 compared with CMY-2 ([8]). The steady-state kinetic parameters kcat and Km (or Ki app) for nitrocefin, cephalothin, ceftazidime, and cefiderocol and the inhibition parameters Ki app, k2/K, k−2, and koff for avibactam are summarized in Table 1. During the hydrolysis of nitrocefin, we observed the reduction of the initial velocity at concentrations above 50 µM particularly for the CMY-2 variants harboring the N346Y substitution. As this could have represented substrate inhibition, we then determined the kinetics parameters for nitrocefin using the Haldane equation ([16]). […] In addition, during the hydrolysis of cefiderocol by CMY-185, the initial velocities at a concentration range of 3.7–59.4 µM were similar.
(§2) The steady-state kinetics were carried out on a UV-Visible spectrometer (UV-1280, Shimadzu, Japan) in PBS pH 7.2 at 25°C with a constant amount of enzyme and varying concentrations of the substrates. We tested nitrocefin, cephalothin, ceftazidime, and cefiderocol as the substrates and avibactam as the inhibitor. The steady-state kinetics parameters Km and kcat were determined with the Michaelis-Menten equation. For poorly hydrolyzed substrates, the Km value was assumed to be the competitive inhibition constant (Ki app) value according to previous studies ([17], [19]). Inhibition parameter values of Ki app, k2/K, k−2, and koff for avibactam were determined using a method as described previously ([33]). Cephalothin was used as the reporter substrate for competitive inhibition experiments, and its concentration was fixed at 100 µM. […] Inverse steady-state initial velocities were plotted against the concentration of the competitive inhibitor agents, such as ceftazidime, cefiderocol, and avibactam. The data were analyzed by linear regression analysis of the Dixon plot, and Ki app (observed) was determined by dividing the y-intercept value by the slope of the line. It was then corrected to account for the affinity of cephalothin for each enzyme using the Equation (1): […]

[2] = target: T2, CMY-2 variant A114E_N346Y (Klebsiella pneumoniae, UniProt Q48434, A134E/N366Y); experiment: Steady-state hydrolysis kinetics; type: biochemical, Escherichia coli; settings: substrate 100 µM, 100–200 nM enzyme
T2 construct: all CMY-2 variant genes encoding the mature enzyme without a signal peptide were cloned into the protein expression plasmid vector pET-30b; made in house; host or cells: E. coli BL21 (DE3), pET-30b
From the text: as §1, §2

[3] = target: T3, CMY-2 variant N346Y (Klebsiella pneumoniae, UniProt Q48434, N366Y); experiment: Steady-state hydrolysis kinetics; type: biochemical, Escherichia coli; settings: substrate 100 µM, 100–200 nM enzyme
T3 construct: all CMY-2 variant genes encoding the mature enzyme without a signal peptide were cloned into the protein expression plasmid vector pET-30b; made in house; host or cells: E. coli BL21 (DE3), pET-30b
From the text: as §1, §2

[4] = target: T4, CMY-185 (Klebsiella pneumoniae, UniProt Q48434, A134E/N366Y/Q140K/V231S); experiment: Steady-state hydrolysis kinetics; type: biochemical, Escherichia coli
T4 construct: all CMY-2 variant genes encoding the mature enzyme without a signal peptide were cloned into the protein expression plasmid vector pET-30b; made in house; host or cells: E. coli BL21 (DE3), pET-30b
From the text: as §1
(§3) The steady-state kinetics were carried out on a UV-Visible spectrometer (UV-1280, Shimadzu, Japan) in PBS pH 7.2 at 25°C with a constant amount of enzyme and varying concentrations of the substrates. We tested nitrocefin, cephalothin, ceftazidime, and cefiderocol as the substrates and avibactam as the inhibitor. The steady-state kinetics parameters Km and kcat were determined with the Michaelis-Menten equation. For poorly hydrolyzed substrates, the Km value was assumed to be the competitive inhibition constant (Ki app) value according to previous studies ([17], [19]). Inhibition parameter values of Ki app, k2/K, k−2, and koff for avibactam were determined using a method as described previously ([33]). Cephalothin was used as the reporter substrate for competitive inhibition experiments, and its concentration was fixed at 100 µM. The enzyme concentration was 1–10 nM. Inverse steady-state initial velocities were plotted against the concentration of the competitive inhibitor agents, such as ceftazidime, cefiderocol, and avibactam. The data were analyzed by linear regression analysis of the Dixon plot, and Ki app (observed) was determined by dividing the y-intercept value by the slope of the line. It was then corrected to account for the affinity of cephalothin for each enzyme using the Equation (1): […]

[5] = target: T5, CMY-2 variant Q120K_N346Y (Klebsiella pneumoniae, UniProt Q48434, N366Y/Q140K); experiment: Steady-state hydrolysis kinetics; type: biochemical, Escherichia coli; settings: substrate 100 µM, 100–200 nM enzyme
T5 construct: all CMY-2 variant genes encoding the mature enzyme without a signal peptide were cloned into the protein expression plasmid vector pET-30b; made in house; host or cells: E. coli BL21 (DE3), pET-30b
From the text: as §1, §3

[6] = target: T6, CMY-2 variant V211S_N346Y (Klebsiella pneumoniae, UniProt Q48434, N366Y/V231S); experiment: Steady-state hydrolysis kinetics; type: biochemical, Escherichia coli
T6 construct: all CMY-2 variant genes encoding the mature enzyme without a signal peptide were cloned into the protein expression plasmid vector pET-30b; made in house; host or cells: E. coli BL21 (DE3), pET-30b
From the text: as §1, §3

[7] = target: T7, V211S (CMY-42) (Klebsiella pneumoniae, UniProt Q48434, V231S); experiment: Steady-state hydrolysis kinetics; type: biochemical, Escherichia coli; settings: PBS pH 7.2, 25°C
T7 construct: all CMY-2 variant genes encoding the mature enzyme without a signal peptide were cloned into the protein expression plasmid vector pET-30b; made in house; host or cells: E. coli BL21 (DE3), pET-30b
From the text: as §1, §3

[8] = system: CMY-172; settings: cited from earlier work
[9] = system: CMY-178; settings: cited from earlier work
[10] = system: AmpC^Ent385; design: method as in PMID 32284381; settings: lowest Km reported to date; cited from earlier work
[11] = system: other β-lactamases; design: method as in PMID 30188999, PMID 27736756; settings: cited from earlier work

SMILES: CC(C)(O/N=C(\C(=O)N[C@@H]1C(=O)N2C(C(=O)[O-])=C(C[N+]3(CCNC(=O)c4ccc(O)c(O)c4Cl)CCCC3)CS[C@H]12)c1csc(N)n1)C(=O)O [Cefiderocol, cefiderocol]
- hydrolysis [1]: no apparent hydrolysis
- hydrolysis [2]: no apparent hydrolysis
- hydrolysis [3]: no apparent hydrolysis
- kcat ([4]; determined with steady-state velocities (cefiderocol 3.7–59.4 µM) and Ki app assumed to Km): 6.9 × 10^−3 ± 0.4 ×10^−3 a s^−1
- kcat/Ki app ([4]; kcat/Ki app shown in the kcat/Km line): 3.0 × 10^−2 ± 0.2 × 10^−2 b µM^−1 s^−1
- hydrolysis [5]: no apparent hydrolysis
- fold lower Km ([6]; V211S_N346Y compared to V211S): 10 fold
- Km ([6]; V211S_N346Y, PBS pH 7.2, 25°C): 6.9 ± 1.5 µM
- kcat ([6]; V211S_N346Y, PBS pH 7.2, 25°C): 0.049 ± 0.003 s⁻¹
- Km [7]: 68 ± 11 µM
- kcat [7]: 0.034 ± 0.002 s⁻¹
- kcat ([7]; listed as cefiderocol): (3.4 ± 0.2) × 10^−2 s^−1
- MIC [8]: 1 µg/mL (≈ 1.33 µM)
- MIC [9]: 1 µg/mL (≈ 1.33 µM)
- Km [10]: 49.8 µM
- Km [11]: > 190 µM
